Patent US9290487B2, “Pharmaceutical composition for treating diabetes” (Ajinomoto Co., Inc., priority 2011, dated 2016)

Assays:
[1] = target: human GYS1 (glycogen synthase) (Homo sapiens (Human), UniProt P13807); assay: Measurement of glycogen synthase activity (coupled pyruvate kinase/lactate dehydrogenase assay, absorbance at 340 nm); assay type: biochemical; details: concentration inducing relative activity of 50% (100% = Ex. 1 of WO/2011/058154 at 10 μM); incubation at 37° C. for 20 minutes (Examples 11 to 75)
Chain of human GYS1 (glycogen synthase) (P13807 whole entry): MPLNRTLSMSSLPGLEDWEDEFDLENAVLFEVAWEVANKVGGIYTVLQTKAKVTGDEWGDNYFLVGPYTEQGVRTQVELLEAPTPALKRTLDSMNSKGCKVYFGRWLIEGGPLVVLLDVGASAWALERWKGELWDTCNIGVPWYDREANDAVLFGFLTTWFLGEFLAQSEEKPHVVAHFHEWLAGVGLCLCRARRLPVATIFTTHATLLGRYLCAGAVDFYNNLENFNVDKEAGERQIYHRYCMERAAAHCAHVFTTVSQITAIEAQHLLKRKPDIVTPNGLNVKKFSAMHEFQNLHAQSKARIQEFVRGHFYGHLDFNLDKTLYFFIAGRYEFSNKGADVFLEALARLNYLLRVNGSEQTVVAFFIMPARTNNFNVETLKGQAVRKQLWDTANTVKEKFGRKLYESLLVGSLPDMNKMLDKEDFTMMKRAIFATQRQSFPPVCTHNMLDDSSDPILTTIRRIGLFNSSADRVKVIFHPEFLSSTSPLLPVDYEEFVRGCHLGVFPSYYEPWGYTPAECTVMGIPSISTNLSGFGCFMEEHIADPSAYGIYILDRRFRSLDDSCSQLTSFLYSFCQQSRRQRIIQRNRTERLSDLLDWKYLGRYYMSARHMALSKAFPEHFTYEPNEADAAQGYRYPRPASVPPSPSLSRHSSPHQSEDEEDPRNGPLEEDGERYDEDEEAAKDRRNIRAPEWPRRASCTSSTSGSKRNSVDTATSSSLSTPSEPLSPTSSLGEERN
In short: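 GYS1 expressed in HEK293T cells, with the lysate pellet used as enzyme. Reaction with glucose-6-phosphate, glycogen, UDP-glucose, PEP and NADH, pH 7.3, incubated 30° C for 25 min or 37° C for 20 min, then A340 read. EC50 relative to a reference activator at 10 μM set as 100%.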

PPAR-α = PPAR-α (Homo sapiens (Human), UniProt Q07869); assay: Measurement of PPAR-α activity (GAL4 luciferase reporter assay in CV-1 cells); assay type: cell-based; details: 100(A/B), B = compound in WO/2011/058154 at 100 μM, test concentrations not stated for these examples, read-out: PPARα relative fold induction (%)
Chain of PPAR-α (Q07869 167-468): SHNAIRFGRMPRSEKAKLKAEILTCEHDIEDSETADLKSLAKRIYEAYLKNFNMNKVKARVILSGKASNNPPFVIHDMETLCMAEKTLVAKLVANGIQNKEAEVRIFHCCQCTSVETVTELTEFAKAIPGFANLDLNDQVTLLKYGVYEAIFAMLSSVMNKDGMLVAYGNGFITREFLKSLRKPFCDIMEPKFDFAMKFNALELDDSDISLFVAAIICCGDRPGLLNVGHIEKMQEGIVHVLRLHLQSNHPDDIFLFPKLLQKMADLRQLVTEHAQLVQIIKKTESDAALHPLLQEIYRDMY
Experimental: The PPAR-α activity was measured according to the published article (THE JOURNAL OF BIOLOGICAL CHEMISTRY Vol. 270, No. 22, 12953-12956, 1995).
Plasmids used for the PPAR-α activity measurement were constructed as follows. A luciferase expression plasmid (UASx5-TK-Luc) used was obtained by introducing a sequence, in which five yeast GAL4-binding sequences are linked in tandem, upstream of a thymidine kinase promoter of pTAL-Luc (Takara Bio Inc., 6252-1). A PPAR-α receptor expression plasmid (hGR-GAL4-hPPARα) used was obtained by introducing a human GR N-terminal region (1-76 aa), a yeast GAL4 DNA-binding region (1-147 aa), and a PPARα ligand-binding region (167-468 aa) between a Not I site and a Sal I site of pExchange-1 Core Vector (Invitrogen Corporation, 211176).
A reporter assay was conducted by the following method using Cercopithecus aethiops kidney-derived CV-1 cells. The CV-1 cells were seeded in a 96-well plate (Thermo Fisher Scientific Inc., 4938) at 2×10^4 cells/well using a 10% FBS-containing DMEM (Nacalai Tesque, Inc., 0845874) medium. After culturing under conditions of 37° C. and 5% CO2 for 2 hours, the plasmids were transfected. Lipofectamine LTX (Invitrogen Corporation, 15338-100) was used for the transfection according to the attached manual. The plasmid solution was prepared by adding a mixture solution of the luciferase expression plasmid and the PPAR-α receptor expression plasmid to OPTI-MEM I (Invitrogen Corporation, 11058-021). After the transfection was conducted, the test compound was added, and cultured at 37° C. in the presence of 5% CO2 for 18 to 20 hours. After the culturing was completed, the luciferase activity was measured with Luminescensor JNR (ATTO) using Bright-Glo (Promega Corporation, E2620).
The fold induction of PPAR-α by the test compounds was calculated by the following method. For the compounds of Examples 1, 4, 5, 7, and 9, PPAR-α relative fold induction (%) was defined as 100 (A/B), where A represents the maximum value of PPAR-α activities with the test compound at 0.3 μM, 1 μM, 3 μM, 10 μM, 30 μM, and 100 μM, and B represents the PPAR-α activity with the compound in WO/2011/058154 at 100 μM. For the compounds of Examples 11, 15, 19, 22, 26, and 32, PPAR-α relative fold induction (%) was defined as 100 (A/B), where A represents the maximum value of PPAR-α activities with the test compound at 3 μM, 10 μM, 30 μM, and 100 μM, and B represents the PPAR-α activity with the compound in WO/2011/058154 at 100 μM.

Q: Which EC50 [1] does the source give for CC(O)COc1cc(-c2ccc(OCc3cccc(C(=O)N4CCC[C@H]4C(=O)O)c3)cc2)cc(F)c1F (stereo partly drawn) [compound of Ex. 50, 1-[3-({[3′,4′-difluoro-5′-(2-hydroxypropoxy)biphenyl-4-yl]oxy}methyl)benzoyl]-L-proline] here?
A: 410 nM

Q: And the Emax (PPAR-α)?
A: 15%

Q: What does the source list for CC(=O)CSc1cc(F)c(F)cc1-c1ccc(OCc2cccc(C(=O)N3CCC[C@H]3C(=O)O)c2)cc1 [compound of Ex. 51, 1-{3-[({4′,5′-difluoro-2′-[(2-oxopropyl)thio]biphenyl-4-yl}oxy)methyl]benzoyl}-L-proline]?
A: EC50 [1]: 83 nM; Emax (PPAR-α): 15%

Q: What does the source list for O=C(O)[C@@H]1CCCN1C(=O)c1cccc(COc2ccc(-c3cc(F)c(F)cc3/C=N/O)cc2)c1 [compound of Ex. 52, 1-{3-[({4′,5′-difluoro-2′-[(hydroxyimino)methyl]biphenyl-4-yl}oxy)methyl]benzoyl}-L-proline]?
A: EC50 [1]: 61 nM; Emax (PPAR-α): 18%

Q: What does the source list for N#Cc1coc2c(-c3ccc(OCc4cccc(C(=O)N5CCC[C@H]5C(=O)O)c4)cc3)cc(F)c(F)c12 [compound of Ex. 53]?
A: EC50 [1]: 610 nM; Emax (PPAR-α): 15%

Q: Which results are given for O=C(O)[C@@H]1CCCN1C(=O)c1cccc(COc2ccc(-c3cc(F)c(F)c4c(CO)coc34)cc2)c1 [compound of Ex. 56, 1-[3-({4-[4,5-difluoro-3-(hydroxymethyl)-1-benzofuran-7-yl]phenoxy}methyl)benzoyl]-L-proline]?
A: EC50 [1]: 44 nM; Emax (PPAR-α): 6.4%

Q: Which results are given for O=C(O)[C@@H]1CCCN1C(=O)c1cccc(COc2ccc(-c3cc(F)c(F)c4cc(/C=N/O)oc34)cc2)c1 [compound of Ex. 58, 1-{3-[(4-{4,5-difluoro-2-[(hydroxyimino)methyl]-1-benzofuran-7-yl}phenoxy)methyl]benzoyl}-L-proline]?
A: EC50 [1]: 45 nM; Emax (PPAR-α): 19%

Q: For N#CCc1cc(F)c(F)cc1-c1ccc(OCc2cccc(C(=O)N3CCC[C@H]3C(=O)O)c2)cc1 [compound of Ex. 61, 1-[3-({[2′-(cyanomethyl)-4′,5′-difluorobiphenyl-4-yl]oxy}methyl)benzoyl]-L-proline], which EC50 [1] is on record?
A: 790 nM

Q: What about the Emax (PPAR-α) of the same compound?
A: 10%

Q: How did the EC50 [1] turn out when O=Cc1cc2c(F)c(F)cc(-c3ccc(OCc4cccc(C(=O)N5CCC[C@H]5C(=O)O)c4)cc3)c2s1 [compound of Ex. 65, 1-(3-{[4-(4,5-difluoro-2-formyl-1-benzothien-7-yl)phenoxy]methyl}benzoyl)-L-proline] was run?
A: 300 nM

Q: What about the Emax (PPAR-α) of the same compound?
A: 11%

Q: Which results are given for O=C(O)[C@@H]1CCCN1C(=O)c1cccc(COc2ccc(-c3cc(F)c(F)c4cc(CO)sc34)cc2)c1 [compound of Ex. 66, 1-[3-({4-[4,5-difluoro-2-(hydroxymethyl)-1-benzothien-7-yl]phenoxy}methyl)benzoyl]-L-proline]?
A: EC50 [1]: 74 nM; Emax (PPAR-α): 18%

Q: What does the source list for O=C(O)[C@@H]1CCCN1C(=O)c1cccc(COc2ccc(-c3cc(F)c(F)cc3SCCO)cc2)c1 [compound of Ex. 69, 1-{3-[({4′,5′-difluoro-2′-[(2-hydroxyethyl)thio]biphenyl-4-yl}oxy)methyl]benzoyl}-L-proline]?
A: EC50 [1]: 130 nM; Emax (PPAR-α): 8.6%

Q: What does the source list for O=C(O)[C@@H]1CCCN1C(=O)c1cccc(COc2ccc(-c3cc(F)c(F)c4cc(CO)oc34)cc2)c1 [compound of Ex. 70, 1-[3-({4-[4,5-difluoro-2-(hydroxymethyl)-1-benzofuran-7-yl]phenoxy}methyl)benzoyl]-L-proline]?
A: EC50 [1]: 200 nM; Emax (PPAR-α): 7.9%

Q: How did the EC50 [1] turn out when N#CCSc1cc(F)c(F)cc1-c1ccc(OCc2cccc(C(=O)N3CCC[C@H]3C(=O)O)c2)cc1 [compound of Ex. 71, 1-{3-[({2′-[(cyanomethyl)thio]-4′,5′-difluorobiphenyl-4-yl}oxy)methyl]benzoyl}-L-proline] was run?
A: 38 nM

Q: And the Emax (PPAR-α)?
A: 8.6%

Q: For N#CCCSc1cc(F)c(F)cc1-c1ccc(OCc2cccc(C(=O)N3CCC[C@H]3C(=O)O)c2)cc1 [compound of Ex. 72, 1-{3-[({2′-[(2-cyanoethyl)thio]-4′,5′-difluorobiphenyl-4-yl}oxy)methyl]benzoyl}-L-proline], which EC50 [1] is on record?
A: 190 nM

Q: What about the Emax (PPAR-α) of the same compound?
A: 15%
